# How the values were obtained:
# SNAP-A1AR = tested on: T1, SNAP-A1AR; assay: Confocal A1AR internalisation and Rab5 immunolabelling; assay type: cell-based, human; conditions: 10 μM agonist 2 h; cells prelabeled with 30 nM 11
# T1 construct: expressed in transfected cells; host or cells: HEK293T, transient transfection (FuGENE HD)
# Text: A natural concern would be the potential for the covalently transferred fluorophore to prevent access of ligands to the orthosteric binding site of the labeled receptor. To address this question, we employed probe 11 to visualize the internalization pathway of the hA1AR by confocal microscopy. […] Cells were immunolabeled with the Anti-Rab5 monoclonal antibody and visualized by treatment with AF488-conjugated secondary antibody (middle frames, green channel). Right-hand frames show merged images of both magenta and green channels. […] The confocal images are representative of images acquired from three independent experiments. […] 37 °C 5% CO2. […] […] at 37 °C, 5% CO2. […] Cells were […] […] Cells were washed 3x 5 min with PBS.
# NL-hA1AR = target: T2, NL-hA1AR (Homo sapiens, UniProt P30542); assay: NanoBRET dissociation kinetics, NL-hA1AR HEK293T cells; assay type: binding; conditions: NL-hA1AR HEK293T cells, CA200645 preincubated 2 h
# T2 construct: expressed in transfected cells
# T2 sequence (P30542 1-326): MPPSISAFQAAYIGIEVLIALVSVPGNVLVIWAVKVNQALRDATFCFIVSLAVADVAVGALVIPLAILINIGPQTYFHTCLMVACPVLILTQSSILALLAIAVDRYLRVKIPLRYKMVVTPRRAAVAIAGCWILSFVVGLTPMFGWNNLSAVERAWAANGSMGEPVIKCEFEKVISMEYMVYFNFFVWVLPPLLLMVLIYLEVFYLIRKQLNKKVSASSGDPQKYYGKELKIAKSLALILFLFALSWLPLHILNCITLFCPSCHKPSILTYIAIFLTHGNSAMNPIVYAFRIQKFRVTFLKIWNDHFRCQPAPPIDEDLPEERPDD
# Protocol: Figure 3 Molecular pharmacology and biochemical characterization of 11 and 12. NanoBRET ligand-binding data were measured in HEK293 cells stably expressing the human NL-A1AR (A–C) or rat NL-A1AR (D–F). […] Data were normalized to maximal BRET signals in the absence of unlabeled competing ligands (total binding, TB). (C, F) NanoBRET dissociation kinetics experiments with 11 (SulfoCy5) performed in human and rat NL-A1AR HEK293T cells, respectively. Cells were treated with 250 nM 11 (SulfoCy5, lilac open circles) for 5 h and CA200645 (black open triangles) for 2 h. […] TS-SNAP-A1AR was purified and separated on an SDS-PAGEgel gel, and direct Cy5 fluorescence was visualized using in-gel fluorescence. […]
# The small reduction in the BRET signal observed toward the end of the reads could be mostly likely ascribed to substrate (furimazine) consumption. […] To confirm covalent labeling of A1AR by 11 and 12, HEK293G cells stably expressing a Twin-Strep-SNAP-A1AR(TS-SNAP-A1R) construct were treated with 11 or 12 prior to purification, separation by sodium dodecyl sulfate-polyacrylamide gel electrophoresis (SDS-PAGE) and visualization of labeled samples by in-gel fluorescence (Figure 3G). […]
# 37 °C for kinetic binding experiments. Emissions were read at 420 nm (80 nm bandpass; […]
Compound,localization of SulfoCy5-labeled SNAP-A1AR at the plasma membrane after agonist (SNAP-A1AR),time for BRET signal to return to baseline after addition of 10 μM DPCPX (NL-hA1AR)
"OC[C@H]1O[C@@H](n2cnc3c(NC4CCCC4)nc(Cl)nc32)[C@H](O)[C@@H]1O [CCPA, 2-chloro-N^6-cyclopentyladenosine]",markedly reduced,
CA200645 [reference compound],,≤ 4.7 min
